Data: patent publication US20150344466A1 (SUMITOMO CHEMICAL COMPANY, LIMITED, priority 2013, published 2015)

Tests used:
Format in all cases: in vivo
[1] = system: Spodoptera litura; test: Foliar spray test on Spodoptera litura on cabbage (Test Example 11); conditions: 96 h, fourth instar larvae of Spodoptera litura on cabbage, 500 ppm spray 20 ml/cup, after 4 days, read-out: controlling value
Method: On the other hand, cabbage was planted in a polyethylene cup, and grown until the third-fourth true leaf was spread. The test spray solution was sprayed to the cabbage at a ratio of 20 ml/cup. After the drug solution sprayed orn the cabbage was dried, 10 fourth instar larvae of Spodoptera litura were allowed to parasitize the cabbage. After 4 days, the number of surviving Spodoptera litura on the cabbage leaves was examined, and the controlling value was calculated according to the following equation. Controlling value (%)={1−(Cb×Tai)/([…])}×100 In the equation, the symbols represent as follows. Cb: the number of insects in a non-treated section before treatment Cai: the number of insects in a non-treated section on observation Tb: the number of insects in a treated section before treatment Tai: the number of insects in a treated section on observation

[2] = system: Plutella xylostella; test: Foliar spray test on Plutella xylostella on cabbage (Test Example 10); conditions: 120 h, third instar larvae of Plutella xylostella on cabbage, 500 ppm spray 20 ml/cup, after five days, read-out: controlling value
Method: On the other hand, cabbage was planted in a polyethylene cup, and grown until the third-fourth true leaf was spread. The test spray solution was sprayed to the cabbage at a ratio of 20 ml/cup. After the drug solution sprayed on the cabbage was dried, 10 third instar larvae of Plutella xylostella were allowed to parasitize the cabbage. After five days, the number of Plutella xylostella was investigated, and the controlling value was calculated according to the following standard. Controlling value (%)={1−(Cb×Tai)/(Cai×Tb)}×100 In the equation, the symbols represent as follows. Cb: the number of insects in a non-treated section before treatment Cai: the number of insects in a non-treated section on observation Tb: the number of insects in a treated section before treatment Tai: the number of insects in a treated section on observation

[3] = system: Culex pipiens pallens; test: Knockdown spray test on adult Culex pipiens pallens (Test Example 4); conditions: topical, 0.25 h, active ingredient 0.1% w/v, 0.5 ml sprayed, within 15 minutes, read-out: knockdown rate of the test insects within 15 minutes
In short: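 Knockdown counts were taken 2, 5 and 15 min after spraying and expressed as percent of the 10 adults tested. For the spray, 0.5 ml of solution was applied by spray gun (0.4 kg/cm^2) from 30 cm above a gauze-covered cup in a test chamber; the cup was taken out right after spraying.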

[4] = system: Blattella germanica; test: Knockdown spray test on Blattella germanica, 0.1% w/v oil formulation (Test Example 2); conditions: topical, 0.25 h, active ingredient 0.1% w/v, 1.5 ml sprayed, within 15 minutes, read-out: knockdown rate of the test insects within 15 minutes
In short: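 Ten German cockroaches (5 males, 5 females) in a mesh-bottomed, butter-walled container were sprayed with 1.5 ml test solution from 60 cm at 0.42 kg/cm^2 inside a chamber.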

[5] = system: Culex pipiens pallens; test: Larvicidal test on Culex pipiens pallens, eight days (Test Example 7); conditions: 192 h; last-instar larvae of Culex pipiens pallens; 3.5 ppm in water; eight days later; read-out: death rate
Method: 20 last-instar larvae of Culex pipiens pallens were released into a liquid to which 0.7 ml of the above test drug solution was added to 100 ml of ion-exchanged water (a concentration of the active ingredient of 3.5 ppm). Eight days later, the life and death of the Culex pipiens pallens was examined, and the death rate was calculated. The death rate was calculated by the following equation.
Death rate (%)=(Number of dead insects/Number of tested insects)×100

[6] = system: Musca domestica; test: Knockdown spray test on adult Musca domestica (Test Example 3); conditions: topical, 0.25 h, active ingredient 2.0% w/v, 0.5 ml sprayed, within 15 minutes, read-out: knockdown rate of the test insects within 15 minutes
Method: Ten adult Musca domestica (five males and five females) were released in a polyethylene cup (bottom diameter: 10.6 cm), and the cup was covered with a 16-mesh nylon gauze. The polyethylene cup was placed on the bottom of a test chamber (bottom: 46 cm×46 cm, height: 70 cm). From a height of 30 cm above the upper surface of the polyethylene cup, 0.5 ml of the test drug solution was sprayed using a spray gun (a spraying pressure of 0.9 kg/cm^2). Immediately after spraying, the cup was taken out from the test chamber, and after 2 minutes, 5 minutes and 15 minutes, the number of knocked-down insects was counted to obtain a knockdown rate. The knockdown rate was calculated by the following equation.
(§1) Knockdown Rate (%)=(Number of Knocked-down Insects/Number of Tested Insects)×100

[7] = system: Blattella germanica; test: Knockdown spray test on Blattella germanica, 2.0% w/v oil formulation (Test Example 1); conditions: topical, 0.25 h, active ingredient 2.0% w/v, 1.5 ml sprayed, within 15 minutes, read-out: knockdown rate of the test insects within 15 minutes
Method: Ten Blattella germanica (5 males and 5 females) were released in a test container (8.75 cm in diameter, 7.5 cm in height, and the bottom made of 16 mesh metallic wire) with the inner wall on which butter was applied, and the container was placed on the bottom of a test chamber (bottom: 46 cm×46 cm, height: 70 cm). From a height of 60 cm above the upper surface of the container, 1.5 ml of the test drug solution was sprayed using a spray gun (a spraying pressure of 0.42 kg/cm^2). Thirty seconds after spraying, the container was taken out from the test chamber, and after 2 minutes, 5 minutes and 15 minutes, the number of knocked-down insects was counted to obtain a knockdown rate. The knockdown rate was calculated by the following equation.
as §1

[8] = system: Musca domestica; test: Filter paper/sucrose bait death rate test on Musca domestica (Test Example 5); conditions: female imagoes of Musca domestica, 0.7 ml on filter paper, after 24 hours
In short: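 Ten female imagoes were confined in a sealed cup over a filter paper treated with 0.7 ml of test solution and 30 mg sucrose bait. Mortality was scored at 24 h and expressed as percent of tested insects killed.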

| Compound | pest or weed control at 500 ppm [1] [%] | pest or weed control at 500 ppm [2] [%] | pest or weed control at 0.1 % strength [3] [%] | pest or weed control at 0.1 % strength [4] [%] | pest or weed control at 3.5 ppm [5] [%] | pest or weed control at 2 % strength [6] [%] | pest or weed control at 2 % strength [7] [%] | pest or weed control at 500 ppm [8] [%] |
| --- | --- | --- | --- | --- | --- | --- | --- | --- |
| O=C(NCC1CCOC1)c1cc(Cc2cccc(F)c2)on1 (centres unmarked) [(318), N-(tetrahydrofuran-3-ylmethyl)-5-(3-fluorobenzyl)isoxazole-3-carboxamide] | ≥ 80 | ≥ 90 | ≥ 80 | ≥ 80 |  |  |  |  |
| O=C(NCC1CCOC1)c1cc(COCc2cccc(OC(F)(F)F)c2)on1 (centres unmarked) [(78), N-(tetrahydrofuran-3-ylmethyl)-5-(3-trifluoromethoxybenzyloxymethyl)isoxazole-3-carboxamide] |  |  | ≥ 80 | ≥ 80 | ≥ 90 |  |  |  |
| CC1(CNC(=O)c2cc(CCCc3ccc4ccccc4c3)on2)COC1 [(332), N-(3-methyloxetan-3-ylmethyl)-5-[3-(2-naphthyl)propyl]isoxazole-3-carboxamide] |  |  | ≥ 80 | ≥ 80 | ≥ 90 | ≥ 80 | ≥ 80 |  |
| O=C(NCC1CCOC1)c1cc(CCCc2ccc(Cl)cc2)on1 (centres unmarked) [(252), N-(tetrahydrofuran-3-ylmethyl)-5-[3-(4-chlorophenyl]propyl) isoxazole-3-carboxamide] |  |  | ≥ 80 | ≥ 80 | ≥ 90 |  |  | ≥ 90 |
| O=C(NCC1CCOC1)c1cc(COc2cccc(Br)c2)on1 (centres unmarked) [(196), N-(tetrahydrofuran-3-ylmethyl)-5-(3-bromophenoxymethyl)isoxazole-3-carboxamide] | ≥ 80 |  | ≥ 80 | ≥ 80 |  |  |  |  |
| O=C(NCC1CCOC1)c1cc(Cc2ccc(Cl)c(Cl)c2)on1 (centres unmarked) [(325), N-(tetrahydrofuran-3-ylmethyl)-5-(3,4-dichlorobenzyl)isoxazole-3-carboxamide] | ≥ 80 |  | ≥ 80 | ≥ 80 |  |  |  | ≥ 90 |
| O=C(NCC1CCOC1)c1cc(COCc2ccc(Br)c(F)c2)on1 (centres unmarked) [(272), N-(tetrahydrofuran-3-ylmethyl)-5-(4-bromo-3-fluorobenzyloxymethyl)isoxazole-3-carboxamide] | ≥ 80 | ≥ 90 | ≥ 80 |  |  |  |  |  |
| Cc1c(C(=O)NCC2CCOC2)noc1CCCc1ccccc1F (centres unmarked) [(282), N-(tetrahydrofuran-3-ylmethyl)-4-methyl-5-[3-(2-fluorophenyl)propyl]isoxazole-3-carboxamide] |  |  | ≥ 80 | ≥ 80 | ≥ 90 |  |  | ≥ 90 |
| O=C(NCC1CCOC1)c1cc(COCc2ccc(Br)cc2)on1 (centres unmarked) [(91), N-(tetrahydrofuran-3-ylmethyl)-5-(4-bromobenzyloxymethyl)isoxazole-3-carboxamide] |  | ≥ 90 | ≥ 80 | ≥ 80 | ≥ 90 |  |  |  |
| O=C(NCC1CCOCC1)c1cc(COc2cccc(Br)c2)on1 [(197), N-(tetrahydropyran-4-ylmethyl)-5-(3-bromophenoxymethyl)isoxazole-3-carboxamide] | ≥ 80 |  | ≥ 80 |  |  |  |  |  |
| O=C(NCC1CCOCC1)c1cc(COCc2ccccc2)on1 [(15), N-(tetrahydropyran-4-ylmethyl)-5-benzyloxymethylisoxazole-3-carboxamide] |  | ≥ 90 | ≥ 80 |  |  | ≥ 80 | ≥ 80 |  |
| O=C(NCC1CCOCC1)c1cc(COCc2ccc3ccccc3c2)on1 [(21), N-(tetrahydropyran-4-ylmethyl)-5-(2-naphthylmethoxymethyl)isoxazole-3-carboxamide] |  |  | ≥ 80 |  | ≥ 90 | ≥ 80 | ≥ 80 |  |
| COC(=O)c1c(C(=O)NCC2CCOC2)noc1COCc1ccccc1 (centres unmarked) [(167), N-(tetrahydrofuran-3-ylmethyl)-(5-benzyloxymethyl-4-methoxycarbonyl)isoxazole-3-carboxamide] |  |  |  |  | ≥ 90 |  |  |  |
| O=C(NCC1CCOC1)c1cc(Cc2cccc(Cl)c2)on1 (centres unmarked) [(321), N-(tetrahydrofuran-3-ylmethyl)-5-(3-chlorobenzyl)isoxazole-3-carboxamide] | ≥ 80 |  | ≥ 80 | ≥ 80 |  |  |  | ≥ 90 |
| O=C(NCC1CCOC1)c1cc(COCc2ccccc2)on1 (centres unmarked) [(13), N-(tetrahydrofuran-3-ylmethyl)-5-benzyloxymethylisoxazole-3-carboxamide] |  | ≥ 90 | ≥ 80 |  |  | ≥ 80 | ≥ 80 |  |
| O=C(NCC1CCOCC1)c1cc(COc2cccc(C(F)(F)F)c2)on1 [(199), N-(tetrahydropyran-4-ylmethyl)-5-(3-trifluoromethylphenoxymethyl)isoxazole-3-carboxamide] |  |  | ≥ 80 |  | ≥ 90 |  |  |  |
| O=C(NCC1CCOC1)c1cc(COCc2ccc(Cl)cc2)on1 (centres unmarked) [(70), N-(tetrahydrofuran-3-ylmethyl)-5-(4-chlorobenzyloxymethyl)isoxazole-3-carboxamide] |  | ≥ 90 | ≥ 80 | ≥ 80 | ≥ 90 |  |  |  |
| O=C(NCC1CCOCC1)c1cc(COCc2ccc(SC(F)(F)F)cc2)on1 [(96), N-(tetrahydropyran-4-ylmethyl)-5-(4-trifluoromethylthiobenzyloxymethyl)isoxazole-3-carboxamide] |  |  | ≥ 80 |  | ≥ 90 |  |  |  |
| O=C(NCC1CCOC1)c1cc(COCc2cc3ccccc3s2)on1 (centres unmarked) [(112), N-(tetrahydrofuran-3-ylmethyl)-5-(benzothiophen-2-ylmethoxymethyl)isoxazole-3-carboxamide] | ≥ 80 |  | ≥ 80 | ≥ 80 |  |  |  |  |
| O=C(NCC1CCOC1)c1cc(CCCCOc2ccccc2)on1 (centres unmarked) [(146), N-(tetrahydrofuran-3-ylmethyl)-5-(4-phenoxybutyl)isoxazole-3-carboxamide] |  |  | ≥ 80 |  | ≥ 90 | ≥ 80 | ≥ 80 |  |
